How the values were obtained:
[1] = target: T1, Human immunodeficiency virus type 1 integrase (Human immunodeficiency virus 1, UniProt Q7ZJM1); assay: Inhibition of HIV1 integrase 3' processing activity
[2] = target: T1, Human immunodeficiency virus type 1 integrase; assay: Inhibition of HIV1 integrase strand transfer activity

T1 sequence (Q7ZJM1 whole entry): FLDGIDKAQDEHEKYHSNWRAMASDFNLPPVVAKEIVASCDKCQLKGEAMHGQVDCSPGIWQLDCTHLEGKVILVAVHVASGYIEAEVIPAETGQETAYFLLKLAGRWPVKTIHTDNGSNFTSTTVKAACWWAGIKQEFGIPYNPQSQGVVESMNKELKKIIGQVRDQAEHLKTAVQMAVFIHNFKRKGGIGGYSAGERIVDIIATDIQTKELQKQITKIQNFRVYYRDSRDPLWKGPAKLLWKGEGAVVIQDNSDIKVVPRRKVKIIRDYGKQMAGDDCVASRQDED

IC50 [1] [µM]	IC50 [2] [µM]	Structure (SMILES)
> 333	> 333	COC(=O)C(=O)/C=C(\O)c1ccccc1
187	48	COC(=O)C(=O)/C=C(\O)c1cccn1Cc1ccc(F)cc1

— ChEMBL document CHEMBL1138095, “From ligand to complexes: inhibition of human immunodeficiency virus type 1 integrase by beta-diketo acid metal complexes” (J Med Chem, 2006)
